Data published in patent US11235023B2, “Beta-hairpin peptidomimetic with elastase inhibitory activity and aerosol dosage forms thereof” (POLYPHOR AG, priority 2016, dated 2022).
Non-standard residues stand in square brackets, D forms with d. Residues, ends and D or L forms follow the SMILES beside them. Gly(octyl) = CCCCCCCC[C@H](N)C(=O)O

How the values were obtained:
[1] = GLP-compliant 28-day inhalation toxicity study in monkeys; type: in vivo, cynomolgus monkey
Experimental: In a GLP-compliant 28-day inhalation toxicity study in cynomolgus monkeys, conducted by Charles River Laboratories Preclinical Services, Tranent, Edinburgh, UK, the formulation described in Example 2 and dilutions thereof as well as the vehicle were administered using the Pari eFlow® XL 30 nebulizer device (Pari Pharma, Starnberg, Germany) with an oro-nasal inhalation mask for 60 min per day for 28 days, followed by a 2-week recovery period. […] In total five males and five females were used for each dose of the toxicity study including recovery. Parameters assessed included clinical signs, body weights, electrocardiology, ophthalmic examination, clinical pathology, toxicokinetic parameters in the plasma, gross necropsy findings, organ weights and histopathologic examinations.

[2] = First-in-man study in healthy subjects, safety and tolerability of orally inhaled single doses; type: in vivo, human
Description: In this randomised, double-blind, placebo-controlled, parallel-group (per dose level) dose-escalation study of inhaled single doses in 48 healthy subjects in six dose groups of eight subjects each, conducted by Inamed GmbH, Gauting, Germany, the controlled oral inhalation of the formulation described in Example 1 and dilutions thereof as well as the placebo (0.5% [w/w] aqueous sodium chloride solution adjusted to pH 5.5 with 1 M HCl pharmaceutical grade) occurred via the Pari eFlow® XL 30 nebulizer device (Pari Pharma GmbH, Starnberg, Germany). The dose levels and corresponding concentrations of cyclo(-OctG-Glu-Thr-Ala-Ser-Ile-Pro-Pro-Gln-Lys-Tyr-^DPro-Pro-) (active compound) are summarized in Table 10.
The volume of placebo nebulizer solution corresponded to that of the active compound at a particular dose level. The duration of inhalation depended on the total volume of nebulizer solution and ranged between several minutes and roughly one hour. Adverse events were tabulated and summarized according to the current version of Medical Dictionary for Regulatory Activities.

[3] = GLP-compliant 28-day inhalation toxicity study in rats; type: in vivo, rat
Experimental: In a GLP-compliant 28-day inhalation toxicity study in rats, conducted by Charles River Laboratories Preclinical Services, Tranent, Edinburgh, UK, the formulation described in Example 2 and dilutions thereof as well as the vehicle were administered using the Pari eFlow® XL 30 nebulizer device (Pari Pharma, Starnberg, Germany) for 100 min per day for 28 days, followed by a 2-week recovery period. […] Ten animals were used for the main toxicity study, and 5 additional animals for the recovery phase. Parameters assessed included clinical signs, body weights, food consumption, ophthalmic examination, clinical pathology, gross necropsy findings, organ weights and histopathologic examinations. […] This was associated with reduction in food consumption in treated animals. There was a good recovery in body weight gain during the recovery period between day 28 and 42.

[4] = Phase-Ib study in CF patients, sputum concentrations (LC-MS/MS); type: in vivo, human
Experimental: Concentrations of active compound in sputum were calculated and Cmax and AUC0-tlast were determined.
Spontaneous sputum samples for PK assessments were collected during the following time intervals/periods:
On Day −1 as soon as possible after the subject's arrival at the study site (blank PK), on Day 1 in the period of time between 1 h and 3 h after start of inhalation, and in the morning of Day 2, at approx. 24 h after start of inhalation. Moreover, any spontaneous sputum expectoration between 0-1 h after start of inhalation was collected.
Spontaneous sputum samples were collected in polystyrene Petri dishes and put on ice immediately. All processing steps had to be performed with cold reagents and on ice whenever possible. Plugs were separated from saliva, but the latter was not discarded. If a sputum sample was taken for both PK and neutrophil elastase activity in sputum analysis, the plug was split in 2 approximately equal parts. One part was processed for PK analysis the other one for evaluation of neutrophil elastase activity in sputum.
For PK processing, the resulting plug was split in approximately 2 equal parts. […] The weight of the sputum samples (SP1+SP3) was determined and all samples were immediately put on dry ice for freezing. […]
The pharmacokinetic parameters mentioned above were calculated based on actual blood and sputum sampling times using non-compartmental procedures.

neutrophil elastase = assay: LPS/fMLP model of neutrophil activation in the rat, neutrophil elastase activity in BAL supernatant; type: in vivo; details: for NE activity: BAL 6 h post LPS, mean ± s.e.m., vehicle 0.25 ± 0.02

CCCCCCCC[C@@H]1NC(=O)[C@@H]2CCCN2C(=O)[C@H]2CCCN2C(=O)[C@H](Cc2ccc(O)cc2)NC(=O)[C@H](CCCCN)NC(=O)[C@H](CCC(N)=O)NC(=O)[C@@H]2CCCN2C(=O)[C@@H]2CCCN2C(=O)[C@H]([C@@H](C)CC)NC(=O)[C@H](CO)NC(=O)[C@H](C)NC(=O)[C@H]([C@@H](C)O)NC(=O)[C@H](CCC(=O)O)NC1=O [active compound, cyclo(-OctG-Glu-Thr-Ala-Ser-Ile-Pro-Pro-Gln-Lys-Tyr-^DPro-Pro-)] (cyclo([Gly(octyl)]ETASIPPQKY[dP]P))
NOAEL at 28 days ([1]; both sexes, in vivo, inhaled or intranasal, cynomolgus monkey, oro-nasal inhalation 60 min per day for 28 days): 112 mg/kg/day | Haematology and clinical pathology ([1]; cynomolgus monkey, in vivo): some minor, toxicologically insignificant changes | Histopathologic findings ([1]; cynomolgus monkey, in vivo): increased numbers of alveolar macrophages, perivascular/peribronchiolar infiltrates, and granular eosinophilic deposits in the lung and lymphoid hyperplasia in the tracheobronchial lymph nodes | Gross findings: lung weight ([1]; male monkeys at 112 mg/kg/day): increased lung weight | Body weight, clinical signs, ophthalmic, electrocardiographic and urinary findings ([1]; monkey, 11.2, 30.1 and 112 mg/kg/day): no body weight changes, clinical signs, ophthalmic or electrocardiographic findings or changes in urinary parameters attributable to drug treatment | Deaths, serious and other significant adverse events ([2]; healthy subjects, single inhaled doses 20-960 mg): No death, no serious adverse events (AE) and no other significant AE | Inhalation-related adverse events ('cough'), local tolerability ([2]; human, in vivo): three | Number of subjects with AEs ([2]; human, in vivo): 13 | Number of treatment-emergent adverse events (TEAEs) ([2]; human, in vivo): 24 | Proportion of subjects with AEs ([2]; human, in vivo): 27.1% | Subjects judging overall tolerability as 'very good' or 'good' ([2]; human, in vivo): 97.9% | NOAEL at 28 days ([3]; in vivo, inhaled or intranasal, rat, inhalation 100 min per day for 28 days, read-out: No Observed Adverse Effect Level (NOAEL)): 119 mg/kg/day | Body weight gain ([3]; male rats at 119 mg/kg/day vs vehicle control): Slightly reduced | Clinical signs and ophthalmic findings ([3]; rat, 11, 53 and 119 mg/kg/day): no clinical signs or ophthalmic findings | Clinical pathology (haematology, coagulation, clinical chemistry, urinalysis) ([3]; rat, in vivo): no findings in clinical pathology | Histopathology of the larynx ([3]; rat, in vivo): focal minimal squamous metaplasia without cellular atypia of dysplasia | Histopathology of the lungs ([3]; rat, in vivo): minimal to moderate multifocal alveolar macrophage accumulation | Detection in sputum at 24 h after inhalation ([4]; all dose groups): still detected | Concentration in sputum relative to plasma ([4]; comparison of FIG. 4 and FIG. 3): approximately 10^3 fold | Effect on neutrophil elastase activity in BAL fluid (neutrophil elastase; 0.3, 3 and 30 mg/kg by inhalation 3 h post LPS, 1 h prior to fMLP): significantly inhibited | Test item related clinical signs (neutrophil elastase; between dosing period and study termination): No test item related clinical signs were observed | NE activity (neutrophil elastase; inhalation 0.3 mg/kg): 0.10 ± 0.01 mU/mL eq. | NE activity (neutrophil elastase; inhalation 3 mg/kg): 0.11 ± 0.01 mU/mL eq. | NE activity (neutrophil elastase; inhalation 30 mg/kg): 0.07 ± 0.01 mU/mL eq. | Efficacy in previous intratracheal study (neutrophil elastase; intratracheal doses of 0.03 to 3 mg/kg): efficacious
